Read-outs that look alike come from different tables or passages of the source.

The subject of test [1] is nicotinic acetylcholine receptor (nAChR), native in PC12 cells, subunits not specified. In words: inhibition of […] nicotine-induced K+ release from PC12 cells, ion-selective CNT-FET. The class given is cell-based, Rattus norvegicus.
Test [2] shares this test system. In words: agonist-induced K+ release from PC12 cells by ion-selective CNT-FET, Hill fit. In kind it is cell-based, Rattus norvegicus.
Test [3] has the same test system.

For the molecule `C[N+](C)(C)CCCCCC[N+](C)(C)C` [HB, hexamethonium], the IC50 in test [1] was determined as 4.58 ± 0.85 pIC50.
On the same count and under the same terms, the figure for `CNC1(C)C2CCC(C2)C1(C)C` (stereo not shown) [MH, mecamylamine] is 5.74 ± 0.54 pIC50.
Usually Kd stands for the free concentration of one partner at which half of the binding sites on the other are occupied at equilibrium, for simple one-to-one binding. A lower Kd goes with a tighter complex. Regarding `CC(=O)OCC[N+](C)(C)C` [acetylcholine], the affinity in test [2], expressed as Kd, was […].
As to `CN1CCC[C@H]1c1cccnc1` [nicotine], in test [3], the Kd was determined as […].

The values above are taken from paper PMC7374424, “Ion-Selective Carbon Nanotube Field-Effect Transistors for Monitoring Drug Effects on Nicotinic Acetylcholine Receptor Activation in Live Cells” (Sensors (Basel, Switzerland), 2020).
